Measured values published in US20070207981A1, “MICRO-ENCAPSULATION OF VOLATILE COMPOUNDS INTO CYCLODEXTRINS: A NEW TECHNOLOGY TO REDUCE POST HARVEST LOSSES” (priority 2006, published 2007).

Columns and labels:
[1] = oral, mammalian; cited from earlier work
Colletotrichum acutatum = assay: Growth of C. acutatum exposed to volatile vapour in closed jars at 23° C.; settings: 7 days at 23° C.; for concentration that completely inhibited / avoided C. acutatum growth: headspace concentration
Description: (§2) Fourteen-day-old surface-plated cultures of Colletotricumn acutatum, Alternaria alternata and Botrytis cinerea in plastic Petri dishes (9 cm diameter), were filled aseptically with PDA medium (Potato Dextrose Agar) (Sigma-Aldrich Corp. (Saint Louis, Mo.)), and mixed with a few drops of sterile distilled water. Ten mL of each were collected inside plastic tubes which were shaken hard to dislodge spores from mycelia. The spores and cell suspensions were then filtered with sterile cheesecloth to remove debris such as mycelia and condensed-agar fragments and the aliquot was concentrated to 10^6 c.f.u./mL (spore*mL^−1), which were counted by the Neubauer improved method (Bright-Line Hemacytometer, Hausser Scientific, Horsham, Pa.).
(§3) Smaller Petri dishes (5.5 cm diameter) were also filled aseptically with PDA. Upon solidification of the agar medium, a drop of spores of each suspension was inserted as a drop in the centre of the well with a 100 μL Oxford Autoclavable Benchmate Pipette (Nichiryo, Japan). Finally, the Petri dishes were placed inside 1 L-glass jars which were closed with twist-off tops and stored at 23° C. These were used as the controls.
(§4) Other jars were modified for inserting and withdrawing of the volatiles obtained from the bioassays. For that, jars tops were modified by introducing a septum through which the volatile was inserted on a small piece of glass which was suspended 4 cm above the bottom. The same device was used to withdraw samples during storage. […]
(§5) Radial growth of the cultures in controls and treated samples were evaluated daily by measuring the surface area of the plate occupied by the colony during incubation or by measuring the length of the colony. […] Each assay was tested in triplicate and the area means calculated were analyzed statistically by analysis of variance. The delay in fungal growth was expressed as direct radial growth of cultures in cm^2 or cm as a percentage of colony growth by comparing samples exposed to the anti-fungal treatments with the controls. […]

Botrytis cinerea = assay: Growth of B. cinerea exposed to volatile vapour in closed jars at 23° C.; settings: 7 days at 23° C.
Description: as §2, §3, §4, §5

Aspergillus Niger = assay: Growth of Aspergillus niger in vitro in the presence of pure volatiles; format: cell-based; settings: 4 μL of volatile, after 7 days at room temperature
Description: (§1) In accordance with still another embodiment of the present invention, growth of Penicillium sp. and Aspergillus Niger was evaluated in vitro in the presence of hexanal, acetaldehyde and 2E-hexenal. The fungistatic and fungicidal effects of the pure volatiles were evaluated and presented below.

Alternaria alternata = assay: Growth of A. alternata exposed to volatile vapour in closed jars at 23° C.; settings: 7 days at 23° C.; for concentration that completely inhibited / avoided A. alternata growth: headspace concentration
Description: as §2, §3, §4, §5

Penicillium sp. = assay: Growth of Penicillium sp. in vitro in the presence of pure volatiles; format: cell-based; settings: for Penicillium fungal development delayed: after 7 days at 23° C.
Description: as §1

Structure (SMILES): CC=O [acetaldehyde]
- ORL-MAM LD50 [1]: 250 mg/kg
- concentration that completely inhibited / avoided C. acutatum growth (Colletotrichum acutatum): 0.44 μg/mL air
- prevention of B. cinerea growth (Botrytis cinerea; any amount tested): able to prevent
- A. niger delay in growth (Aspergillus Niger): over 66%
- concentration that completely inhibited / avoided A. alternata growth (Alternaria alternata): 0.10 μg/mL air

Structure (SMILES): CCCCCC=O [hexanal]
- concentration that completely inhibited C. acutatum growth, equivalent ppm of volatile (Colletotrichum acutatum): 1.5 ppm
- concentration that completely inhibited / avoided C. acutatum growth (Colletotrichum acutatum): 0.91 μg/mL air
- concentration that completely inhibited B. cinerea growth, equivalent ppm of volatile (Botrytis cinerea): 4 ppm
- concentration that completely inhibited B. cinerea growth (Botrytis cinerea; headspace concentration): 1.05 μg/mL air
- Penicillium fungal development delayed (Penicillium sp.; insertion of 4 μL of volatile): over 18%
- Penicillium fungal development delayed (Penicillium sp.; insertion of 6 μL of volatile): > 74%
- concentration that completely inhibited A. alternata growth, equivalent ppm of volatile (Alternaria alternata): 7 ppm
- concentration that completely inhibited / avoided A. alternata growth (Alternaria alternata): 1.91 μg/mL air

Structure (SMILES): CCC/C=C/C=O [2E-hexenal]
- Penicillium growth (Penicillium sp.; 1 μL of volatile, 1 week at 23° C.): not able to grow
